Data on 17 molecules can be found in patent US6384061B1, “Hydantoin compounds and methods related thereto” (LG Chemical Ltd., priority 2000, dated 2002).

Experiment [1] relates to intracellular Ras farnesyl transferase, Rat2 cell line. The experiment in a line: Intracellular Ras farnesyl transferase inhibiting activity in transformed Rat2 cells (35S-methionine labelling, Y13-259 immunoprecipitation, SDS-PAGE). To be noted: Rattus norvegicus; transformed Rat2 fibroblast cell line; concentration inhibiting 50% of farnesyl binding of Ras protein; read-out: Ftase CIC50. In kind it is cell-based. The method, then:
In the present experiment, Rat2 cell line which expresses C-Harvey-Ras protein having transforming activity and Rat2 cell line(Korean patent application No. 97-14409) which is transformed with fused protein of H-Ras substituted with polybasic lysine domain at C-terminus of K-Ras were used. The experiment was performed by the modified Declue's method(Declue. J. E. et al., Cancer Research, 1991. 51, 712). Hereinafter, the experimental method will be described in more detail.
3×10^5 cells of transformed Rat2 fibroblast cell line were sprayed on 60 mm cell cultivation dish and cultivated for 48 hours in a cell incubator at 37° C. and after 50% or more of density was reached, it was treated with a reagent. The compound according to the present invention dissolved in dimethylsulfoxide(DMSO) was used as the reagent. 1% of dimethylsulfoxide was used in both control and experimental groups. After 4 hours from the treatment of the reagent, methionine labeled with 150 μCi of radioactive isotope, ^35S per 1 ml of medium, was added and after cultivating for 20 hours, the cells were washed with physiological saline water. The cells were lysed using 1 ml of cool cell lysis buffer solution(50 mM of Sodium Herpiss buffer solution containing 5 mmol of magnesium chloride. 1 mmol of DTT, 1% NP 40, 1 mmol of EDTA, 1 mmol of PMSF, 2 μmol of leupeptin, 2 μmol of pepstatin A and 2 μmol of antipain) and the supernatant was obtained by high-velocity centrifugation of 12,000 g×5 minutes. The amount of the labeled radioisotope of the supernatent was measured and standardized to obtain a quantitative result in immunoprecipitation reaction and then. Y13-259, monoclonal antiboby specifically binding to Ras protein(Furth, M. E. et al., J. Virol, 1982, 43, 294) was added and reacted for 15 hours at 4° C. Protein A bound to goat anti-murine Immunoglobulin antibody-agarose suspension was added to the solution and reacted for 1 hour at 4° C. and then, to remove unspecific binding product, immunoprecipitates were washed with buffer solution(50 mM Tris chloride buffer solution containing 50 mmol of sodium chloride, 0.5% of sodium dioxycolate, 0.5% of NP 40 and 0.1% of SDS). The precipitates were boiled in reagent buffer solution for electrophoresis and then, electrophoresis was performed using 13.5% of SDS polyacrylamide gel. After electrophoresis, the gel was fixed and dried. Then, the gel was exposed to X-ray film, developed and printed. From the result of the experiment, intensities of band of protein with and without farnesyl of Ras protein were measured, and the concentration of reagent inhibiting 50% of farnesyl binding was defined as CIC50, an intracellular Ras farnesyl transferase inhibiting activity.

For experiment [2], the target named is T1, Geranylgeranyl transferase (Bos taurus, UniProt P29702+Q5EAD5).
T1 construct: Geranylgeranyl transferase was purified from bovine brain; from tissue; host or cells: bovine brain
Description: Geranylgeranyl transferase inhibiting activity (geranylgeranyl pyrophosphate, Ras-CVIL substrate). The format is biochemical. Conditions: geranylgeranyl transferase purified from bovine brain, read-out: GGtase IC50. The procedure:
To evaluate the selective enzyme inhibiting activity of the compound according to the present invention, inhibiting activity on geranylgeranyl transferase was measured. Geranylgeranyl transferase was purified from bovine brain with the method modified from Schber's method(Schber et al., J. Biol. Chem. 1990, 265, 14701). and substantially the same experiment as that of farnesyl transferase was performed using geranylgeranyl pyrophosphate and Ras-CVIL substrate protein under the similar condition to farnesyl transferase reaction.

In the next experiment the target is T2, Ras farnesyl transferase (Homo sapiens, UniProt P49354+P49356).
T2 construct: made in house
Description: Ras farnesyl transferase inhibiting activity (filter-binding, tritium-farnesylpyrophosphate, Ras-CVLS substrate). The format is biochemical. To be noted: recombinant Ras farnesyl transferase, 30 minutes at 37° C., read-out: Ftase IC50. The procedure:
The enzyme reaction was performed in 50 μl of 50 mM Sodium HEPES buffer solution containing 25 mmol of potassium chloride. 25 mmol of magnesium chloride, 10 mmol of DTT and 50 μmol of zinc chloride. 1.5 μmol of Ras substrate protein, 0.15 μmol of tritium-farnesylpyrophosphate and 4.5 nmol of farnesyl transferase were used.
More specifically, in the initial step, farnesyl transferase was added to the above buffer solution, reaction was maintained for 30 minutes at 37° C. and then the reaction was stopped by adding 1 ml of ethanol solution containing 1M HCl. The formed precipitates were adsorbed to GF/B filter using Hopper harvestor(Hopper #225V) for filter-binding, washed with ethanol, and then radioactivity of the dried filter was measured using LKB β counter. Enzyme titer was measured in the unsaturated state of substrate where the concentrations of Ras substrate protein and farnesyl transferase have quantitative relationship. Enzyme inhibiting activity was measured using less than 5% of total reaction solution of the compound according to the present invention dissolved in dimethylsulfoxide(DMSO) solution as a reagent. Enzyme inhibiting activity was represented by percentage of the amount of the farnesyl incorporated with the reagent to that without the reagent.

As to `COC(=O)C(CCSC)NC(=O)CN1C(=O)N(Cc2cnc[nH]2)C(=O)C1(C)c1cccc2ccccc12` (stereo not drawn) [Compound 5, 2-{2-[3-(3H-imidazol-4-yl-methyl)-5-methyl-5-naphthaten-1-yl-2,4-dioxo-imidazolidin-1-yl]-acetylamino}-4-methylsulfanyl-butyric acid methyl ester], the IC50 was 10 µM in experiment [1], more than 10 µM in experiment [2] and 190000 nM at Ras farnesyl transferase.

In the case of `CCOC(=O)CN1C(=O)N(Cc2cncn2Cc2ccc(C#N)cc2)C(=O)C1(C)c1cccc2ccccc12` (stereo not drawn) [Compound 62, {3-[3-(4-cyano-benzyl)-3H-imidazol-4-ylmethyl]-5-methyl-5-naphthalen-1-yl-2,4-dioxo-imidazolidin-1-yl)-acetic acid ethyl ester], the IC50 in experiment [1] was less than 20 µM; in experiment [2], more than 10 µM; at Ras farnesyl transferase it was 50 nM.

Consider `CN(C)CCNC(=O)CC1C(=O)N(Cc2cncn2Cc2ccc(C#N)cc2)C(=O)N1Cc1cccc2ccccc12` (stereo not drawn) [Compound 82, 2-{1-[3-(4-cyano-benzyl)-3H-imidazol-4-ylmethyl]-3-naphthalen-1-ylmethyl-2,5-dioxo-imidazolidin-4-yl}-N-(2-(N,N-dimethylamino)-ethyl)-acetamide], for which the IC50 is less than 20 µM in experiment [1], more than 10 µM in experiment [2] and 150 nM on Ras farnesyl transferase.

As to `CC1(c2cccc3ccccc23)C(=O)N(CCCn2ccnc2)C(=O)N1Cc1ccc(C(=O)N2CCN(C(=O)OCc3ccccc3)CC2)cc1` (stereo not drawn) [Compound 43, 4-{4-[3-(3-imidazol-1-yl-propyl)-5-methyl-5-naphthalen-1-yl-2,4-dioxo-imidazolidin-1-ylmethyl]-benzoyl}-piperazine-1-carboxylic acid benzyl ester], the figures for the IC50 (in experiment [1]; in experiment [2]; on Ras farnesyl transferase) were less than 20 µM, more than 10 µM and 5000 nM, respectively.

Take `CC1(c2cccc3ccccc23)C(=O)N(CCCn2ccnc2)C(=O)N1Cc1cccc(C(F)(F)F)c1` (stereo not drawn) [Compound 22, 1-(3-trifluoromethyl-benzyl)-3-(3-imidazol-1-yl-propyl)-5-methyl-5-naphthalen-1-yl-imidazolidin-2,4-dione]: the IC50 is less than 20 µM in experiment [1], more than 10 µM in experiment [2] and 1700 nM on Ras farnesyl transferase.

Consider `CC1(c2cccc3ccccc23)C(=O)N(CCCc2cncn2Cc2ccc(C#N)cc2)C(=O)N1CC(=O)O` (stereo not drawn) [Compound 52, (3-{3-[3-(4-cyanobenzyl)-3H-imidazol-4-yl]-propyl}-5-methyl-5-naphthalen-1-yl-2,4-dioxo-imidazolidin-1-yl)-acetic acid], for which the IC50 is less than 20 µM in experiment [1], more than 10 µM in experiment [2] and 19 nM on Ras farnesyl transferase.

Take `CC1(c2cccc3ccccc23)C(=O)N(CCCn2ccnc2)C(=O)N1Cc1cccc(CNS(C)(=O)=O)c1` (stereo not drawn) [Compound 36, N-{3-[3-(3-imidazol-1-yl-propyl)-5-methyl-5-naphthalen-1-yl-2,4-dioxo-imidazolidin-1-ylmethyl]-benzyl}-methanesulfonamide]: the IC50 is less than 20 µM in experiment [1], more than 10 µM in experiment [2] and 1200 nM on Ras farnesyl transferase.

On to `COC(=O)C(CCSC)NC(=O)CN1C(=O)N(CCCc2cncn2Cc2ccc(C#N)cc2)C(=O)C1(C)c1cccc2ccccc12` (stereo not drawn) [Compound 57, 2-[2-(3-{3-[3-(4-cyanobenzyl)-3H-imidazol-4-yl]-propyl}-5-methyl-5-naphthalen-1-yl-2,4-dioxo-imidazolidin-1-yl)acetylamino]-4-methylsulfanyl-butyric acid methyl ester], for which the IC50 in experiment [1] is 400 µM; in experiment [2] it was more than 10 µM; at Ras farnesyl transferase, 16 nM.

On to `CC1(c2cccc3ccccc23)C(=O)N(CCCc2cncn2Cc2ccc(C#N)cc2)C(=O)N1Cc1cccc(C#N)c1` (stereo not drawn) [Compound 54, 4-(5-{3-[3-(3-cyano-benzyl)-4-methyl-4-naphthalen-1-yl-2,5-dioxo-imidazolidin-1-yl]-propyl}-imidazol-1-ylmethyl)-benzonitrile], for which the IC50 in experiment [1] was less than 20 µM; in experiment [2] it was more than 10 µM; on Ras farnesyl transferase, 50 nM.

As to `CC1(c2cccc3ccccc23)C(=O)N(CCCn2ccnc2)C(=O)N1Cc1ccccc1C#N` (stereo not drawn) [Compound 31, 2-[3-(3-imidazol-1-yl-propyl)-5-methyl-5-naphthalen-1-yl-2,4-dioxo-imidazolidin-1-ylmethyl]-benzonitrile], the values for the IC50 (in experiment [1]; in experiment [2]; at Ras farnesyl transferase) were less than 20 µM, more than 10 µM and 900 nM, respectively.

Consider `N#Cc1ccc(Cn2cncc2CN2C(=O)CN(Cc3cccc4ccccc34)C2=O)cc1` [Compound 75, 4-[5-(3-naphthalen-1-ylmethyl-2,5-dioxo-imidazolidin-1-ylmethyl)-imidazol-1-ylmethyl]-benzonitrile], for which the IC50 in experiment [1] was more than 50 µM; in experiment [2], more than 10 µM; at Ras farnesyl transferase it was 30 nM.

With `N#Cc1ccc(Cn2cncc2CN2C(=O)CN(c3cccc4ccccc34)C2=O)cc1` [Compound 72, 4-[5-(3-naphthaten-1-yl-2,5-dioxo-imidazolidin-1-ylmethyl)-imidazol-1-ylmethyl]-benzonitrile], the IC50 was less than 20 µM in experiment [1], more than 10 µM in experiment [2] and 20 nM at Ras farnesyl transferase.

As to `CN1C(=O)N(CCCc2cncn2Cc2ccc(Br)cc2)C(=O)C1(C)c1cccc2ccccc12` (stereo not drawn) [Compound 69, 3-{3-[3-(4-bromo-benzyl)-3H-imidazol-4-yl]-propyl}-1,5-di-methyl-5-naphthalen-1-yl-imidazolidin-2,4-dione], the IC50 was less than 20 µM in experiment [1], more than 10 µM in experiment [2] and 300 nM on Ras farnesyl transferase.

`CSCCC(NC(=O)CN1C(=O)N(CCCc2cncn2Cc2ccc(C#N)cc2)C(=O)C1(C)c1cccc2ccccc12)C(=O)O` (stereo not drawn) [Compound 58, 2-[2-(3-{3-[3-(4-cyanobenzyl)-3H-imidazol-4-yl]-propyl}-5-methyl-5-naphthalen-1-yl-2,4-dioxo-imidazolidin-1-yl)-acetylamino]-4-methylsulfanyl-butyric acid]: the figures for the IC50 (in experiment [1]; in experiment [2]; on Ras farnesyl transferase) were less than 20 µM, more than 10 µM and 14 nM, respectively.

With `CSCCC(NC(=O)CN1C(=O)N(Cc2cnc[nH]2)C(=O)C1(C)c1cccc2ccccc12)C(=O)O` (stereo not drawn) [Compound 6, 2-{2-[3-(3H-imidazol-4-yl-methyl)-5-methyl-5-naphthalen-1-yl-2,4-dioxo-imidazolidin-1-yl]-acetylamino}-4-methylsulfanyl-butyric acid], the IC50 in experiment [1] is 7.3 µM; in experiment [2] it was more than 10 µM; at Ras farnesyl transferase, 61 nM.

In the case of `CC1(c2cccc3ccccc23)C(=O)N(CCCn2ccnc2)C(=O)N1Cc1cccc(Br)c1` (stereo not drawn) [Compound 20, 1-(3-bromo-benzyl)-3-(3-imidazol-1-yl-propyl)-5-methyl-5-naphthalen-1-yl-imidazolidin-2,4-dione], the IC50 in experiment [1] was less than 20 µM; in experiment [2], more than 10 µM; on Ras farnesyl transferase, 300 nM.

As to `CC1(c2cccc3ccccc23)C(=O)N(CCCn2ccnc2)C(=O)N1Cc1ccc(C#N)cc1` (stereo not drawn) [Compound 33, 4-[3-(3-imidazol-1-yl-propyl)-5-methyl-5-naphthalen-1-yl-2,4-dioxo-imidazolidin-1-ylmethyl]-benzonitrile], the IC50 in experiment [1] is less than 20 µM; in experiment [2], more than 10 µM; on Ras farnesyl transferase it was 1300 nM.
